Source: patent publication US11306096B2, “4,6 dihydropyrrolo [3,4-C] pyrazole-5 (1H)-carbonitrile derivates for treating cancer” (MISSION THERAPEUTICS LIMITED, priority 2016, dated 2022)

target: USP7 (Homo sapiens (Human), UniProt Q93009); experiment: USP7 Biochemical IC50 Assay; conditions: FLAG-USP7; enzyme and compound incubated 30 min at room temp; TAMRA labelled peptide-ubiquitin fluorescence polarisation substrate; read after 2 hr; read-out: IC50 range
Protocol: The USP7 construct was PCR amplified and cloned into a pFLAG-CMV-6a vector (Sigma-Aldrich) with an N-terminal FLAG tag. HEK293T cells were transfected with FLAG-USP7 using TransIT-LT1 transfection reagent (Mirus) according to the manufacturer's instructions. Cells were harvested 40 hours after transfection. […] The resin was washed two times with low salt buffer plus protease inhibitors (complete mini, Roche) and phosphatase inhibitors (PhosSTOP mini, Roche) and one time with high salt buffer (20 mM Tris, pH 7.5, 500 mM NaCl, 0.5 mM EDTA, 5 mM beta-mercaptoethanol, protease inhibitors (complete mini, Roche) and phosphatase inhibitors (PhosSTOP mini, Roche). To elute the bound USP7, elution buffer (10 mM Tris, pH 7.5, 150 mM NaCl, 0.5 mM EDTA, 10% glycerol, 0.5% NP40, 5 mM beta-mercaptoethanol, 0.15 mg/ml 3×FLAG peptide (Sigma-Aldrich)) was added to the resin and incubated at 4° C. for 2.5 hours rotating. The resin was centrifuged at 4000 rpm for 30 seconds, and the supernatant containing purified FLAG-USP7 was removed and stored at −80° C.
USP7 Biochemical IC50 Assay
A typical 8-point dilution series would be 100, 30, 10, 3, 1, 0.3, 0.1, 0.03 μM final. […] Either 1 μl of 50% DMSO or diluted compound was added to the plate. USP7 was diluted in reaction buffer (20 mM Tris, pH 7.5, 100 mM NaCl, 0.05% Tween 20, 0.5 mg/ml BSA, 5 mM—beta mercaptoethanol) to the equivalent of 0.0025 μl/well and 10 μl of diluted USP7 was added to the compound. Enzyme and compound were incubated for 30 min at room temp. Reactions were initiated by the addition of 50 nM of TAMRA labelled peptide linked to ubiquitin via an iso-peptide bond as fluorescence polarisation substrate. Reactions were read immediately after addition of substrate and following a 2 hr incubation at room temperature. Readings were performed on a Pherastar Plus (BMG Labtech). λ Excitation 540 nm; λ Emission 590 nm.

Sequence of USP7 (Q93009 whole entry): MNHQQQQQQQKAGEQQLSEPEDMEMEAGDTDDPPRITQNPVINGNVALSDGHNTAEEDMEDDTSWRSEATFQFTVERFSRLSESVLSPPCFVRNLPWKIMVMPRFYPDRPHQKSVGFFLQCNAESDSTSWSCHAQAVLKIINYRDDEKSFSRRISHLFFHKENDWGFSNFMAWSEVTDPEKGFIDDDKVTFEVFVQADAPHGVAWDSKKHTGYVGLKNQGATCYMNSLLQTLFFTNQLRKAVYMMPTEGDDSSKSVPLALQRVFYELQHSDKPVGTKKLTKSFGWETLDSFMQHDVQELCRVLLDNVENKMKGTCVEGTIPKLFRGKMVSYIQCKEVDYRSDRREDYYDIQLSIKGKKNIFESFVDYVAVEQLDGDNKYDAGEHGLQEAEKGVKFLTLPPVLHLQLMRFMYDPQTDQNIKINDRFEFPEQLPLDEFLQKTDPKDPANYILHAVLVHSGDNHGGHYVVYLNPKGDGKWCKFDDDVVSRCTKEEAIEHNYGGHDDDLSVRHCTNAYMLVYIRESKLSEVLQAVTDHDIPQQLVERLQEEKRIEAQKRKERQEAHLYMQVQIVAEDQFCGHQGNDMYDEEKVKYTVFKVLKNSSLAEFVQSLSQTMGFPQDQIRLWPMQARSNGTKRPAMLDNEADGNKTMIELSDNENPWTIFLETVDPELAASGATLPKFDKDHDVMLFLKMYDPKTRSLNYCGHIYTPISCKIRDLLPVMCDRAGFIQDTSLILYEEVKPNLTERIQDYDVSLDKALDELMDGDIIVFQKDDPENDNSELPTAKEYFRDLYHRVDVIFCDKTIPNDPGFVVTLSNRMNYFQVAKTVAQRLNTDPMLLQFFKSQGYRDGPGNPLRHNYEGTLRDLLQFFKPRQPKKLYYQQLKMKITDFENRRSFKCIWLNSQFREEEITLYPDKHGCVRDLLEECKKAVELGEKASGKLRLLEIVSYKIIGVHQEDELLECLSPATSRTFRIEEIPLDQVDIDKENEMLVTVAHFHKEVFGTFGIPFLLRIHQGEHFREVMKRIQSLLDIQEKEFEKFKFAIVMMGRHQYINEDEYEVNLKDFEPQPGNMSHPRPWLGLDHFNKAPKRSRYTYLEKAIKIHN

| Compound | IC50 |
| --- | --- |
| CN1CCN(c2ccc(-c3n[nH]c4c3CN(C#N)C4)c(F)c2)CC1 [Example 73, 3-(2-Fluoro-4-(4-methylpiperazin-1-yl)phenyl)-4,6-dihydro-pyrrolo[3,4-c]pyrazole-5(1H)-carbonitrile] | < 10 µM |
| N#CN1Cc2c(Nc3ccccn3)nn(-c3ccc(C(N)=O)cc3)c2C1 [Example 33, 4-(5-Cyano-3-(pyridin-2-ylamino)-5,6-dihydropyrrolo[3,4-c]pyrazol-1(4H)-yl)benzamide] | 10 to 30 µM |
| CN1CCN(c2cccc(-c3n[nH]c4c3CN(C#N)C4)c2)CC1 [Example 71, 3-(3-(4-Methylpiperazin-1-yl)phenyl)-4,6-dihydropyrrolo[3,4-c]pyrazole-5(1H)-carbonitrile] | < 10 µM |
| COc1cc(Cl)ccc1-c1n[nH]c2c1CN(C#N)C2 [Example 67, 3-(4-Chloro-2-methoxyphenyl)-4,6-dihydropyrrolo[3,4-c]pyrazole-5(4H)-carbonitrile] | < 10 µM |
| N#CN1Cc2cnn(-c3n[nH]c4ccccc34)c2C1 [Example 19, 1-(1H-Indazol-3-yl)-4,6-dihydropyrrolo[3,4-c]pyrazole-5(1H)-carbonitrile] | < 10 µM |
| N#CN1Cc2[nH]nc(-c3cccc(OC(F)(F)F)c3)c2C1 [Example 40, 3-(3-(Trifluoro-methoxy)phenyl)-4,6-dihydropyrrolo[3,4-c]pyrazole-5(1H)-carbonitrile] | 10 to 30 µM |
| N#CN1Cc2cnn(-c3cccc(NS(=O)(=O)C4CC4)c3)c2C1 [Example 78, N-(3-(5-Cyano-5,6-dihydropyrrolo[3,4-c]pyrazol-1(4H)-yl)phenyl) cyclopropanesulfonamide] | 10 to 30 µM |
| CN1CCN(c2ccc(-c3n[nH]c4c3CN(C#N)C4)cc2)CC1 [Example 66, 3-(4-(4-Methylpiperazin-1-yl)phenyl)-4,6-dihydro-pyrrolo[3,4-c]pyrazole-5(1H)-carbonitrile] | < 10 µM |
| N#CN1Cc2[nH]nc(-c3ccccc3F)c2C1 [Example 58, 3-(2-Fluorophenyl)-4,6-dihydropyrrolo[3,4-c]pyrazole-5(1H)-carbonitrile] | < 10 µM |
| Cn1ncc2cc(-n3ncc4c3CN(C#N)C4)ccc21 [Example 17, 1-(1-Methyl-1H-indazol-5-yl)-4,6-dihydropyrrolo[3,4-c]pyrazole-5(1H)-carbonitrile] | < 10 µM |
| N#CN1Cc2[nH]nc(-c3ccnn3Cc3ccccc3)c2C1 [Example 53, 3-(1-Benzyl-1H-pyrazol-5-yl)-4,6-dihydropyrrolo[3,4-c]pyrazole-5(1H)-carbonitrile] | 10 to 30 µM |
| N#CN1Cc2cnn(-c3cc(C(N)=O)n[nH]3)c2C1 [Example 28, 5-(5-Cyano-5,6-dihydropyrrolo[3,4-c]pyrazol-1(4H)-yl)-1H-pyrazole-3-carboxamide] | 10 to 30 µM |
| CCc1ccc(OC)c(-c2n[nH]c3c2CN(C#N)C3)c1 [Example 64, 3-(5-Ethyl-2-methoxyphenyl)-4,6-dihydropyrrolo[3,4-c]pyrazole-5(1H)-carbonitrile] | < 10 µM |
| N#CN1Cc2cnn(-c3ccc(F)cc3)c2C1 [Example 3, 1-(4-Fluorophenyl)-4,6-dihydropyrrolo[3,4-c]pyrazole-5(1H)-carbonitrile] | < 10 µM |
| COc1ccc(C(C)C)cc1-c1nn(Cc2ccccc2)c2c1CN(C#N)C2 [Example 25, 1-Benzyl-3-(5-isopropyl-2-methoxyphenyl)-4,6-dihydropyrrolo[3,4-c]pyrazole-5(1H)-carbonitrile] | 10 to 30 µM |
| N#CN1Cc2cnn(-c3cc(-c4ccccc4)n[nH]3)c2C1 [Example 20, 1-(3-Phenyl-1H-pyrazol-5-yl)-4,6-dihydropyrrolo[3,4-c]pyrazole-5(1H)-carbonitrile] | 10 to 30 µM |

| Compound | IC50 |
| --- | --- |
| N#CN1Cc2[nH]nc(-c3ccc(C(=O)NCc4ccccc4)cc3)c2C1 [Example 49, N-Benzyl-4-(5-cyano-1,4,5,6-tetrahydropyrrolo[3,4-c]pyrazol-3-yl)benzamide] | < 10 µM |
| Cc1ccc(F)c(-c2nn(C)c3c2CN(C#N)C3)c1 [Example 60, 3-(2-fluoro-5-methylphenyl)-1-methyl-4,6-dihydropyrrolo[3,4-c]pyrazole-5(1H)-carbonitrile] | < 10 µM |
| Cn1nc2c(c1-c1ccccc1)CN(C#N)C2 [Example 22, 2-Methyl-3-phenyl-2,6-dihydropyrrolo[3,4-c]pyrazole-5(4H)-carbonitrile] | < 10 µM |
| N#CN1Cc2[nH]nc(-c3cc(OC(F)(F)F)ccc3Cl)c2C1 [Example 44, 3-(2-Chloro-5-(trifluoro-methoxy)phenyl)-4,6-dihydropyrrolo[3,4-c]pyrazole-5(1H)-carbonitrile] | < 10 µM |
| N#Cc1ccc(-c2n[nH]c3c2CN(C#N)C3)cc1 [Example 42, 3-(4-Cyanophenyl)-4,6-dihydropyrrolo[3,4-c]pyrazole-5(1H)-carbonitrile] | < 10 µM |
| N#CN1Cc2cnn(-c3ccc(C(=O)NCc4ccccn4)cc3)c2C1 [Example 14, 4-(5-Cyano-5,6-dihydro-pyrrolo[3,4-c]pyrazol-1(4H)-yl)-N-(pyridin-2-ylmethyl)benzamide] | 10 to 30 µM |
| CC(C)Oc1ccc(F)cc1-c1n[nH]c2c1CN(C#N)C2 [Example 48, 3-(5-Fluoro-2-isopropoxyphenyl)-4,6-dihydropyrrolo[3,4-c]pyrazole-5(1H)-carbonitrile] | < 10 µM |
| N#CN1Cc2[nH]nc(-c3cccc(NS(=O)(=O)C4CC4)c3)c2C1 [Example 56, N-(3-(5-Cyano-1,4,5,6-tetrahydropyrrolo[3,4-c]pyrazol-3-yl)phenyl)cyclo-propanesulfonamide] | < 10 µM |
| Cn1nccc1-c1n[nH]c2c1CN(C#N)C2 [Example 39, 3-(1-Methyl-1H-pyrazol-5-yl)-4,6-dihydropyrrolo[3,4-c]pyrazole-5(1H)-carbonitrile] | 10 to 30 µM |
| Cn1nc2c(c1Nc1cc3ccccc3cn1)CN(C#N)C2 [Example 30, 3-(Isoquinolin-3-ylamino)-2-methyl-2,6-dihydropyrrolo[3,4-c]pyrazole-5(4H)-carbonitrile] | < 10 µM |
| CNC(=O)c1ccc(-n2ncc3c2CN(C#N)C3)cc1 [Example 15, 4-(5-Cyano-5,6-dihydropyrrolo[3,4-c]pyrazol-1(4H)-yl)-N-methylbenzamide] | 10 to 30 µM |
| CC(C)n1nc(-c2ccccc2)c2c1CN(C#N)C2 [Example 23, 1-Isopropyl-3-phenyl-4,6-dihydropyrrolo[3,4-c]pyrazole-5(1H)-carbonitrile] | < 10 µM |
| N#CN1Cc2cnn(-c3cn(-c4ccccc4)cn3)c2C1 [Example 9, 1-(1-Phenyl-1H-imidazol-4-yl)-4,6-dihydropyrrolo[3,4-c]pyrazole-5(1H)-carbonitrile] | 10 to 30 µM |
| CNC(=O)c1cc(-n2ncc3c2CN(C#N)C3)ccc1OC [Example 18, 5-(5-Cyano-5,6-dihydropyrrolo[3,4-c]pyrazol-1(4H)-yl)-2-methoxy-N-methylbenzamide] | 30 to 100 µM |
| CC(NC(=O)c1cccc(-n2ncc3c2CN(C#N)C3)c1)c1ccccc1 (centres unmarked) [Example 12, 3-(5-Cyano-5,6-dihydropyrrolo[3,4-c]pyrazol-1(4H)-yl)-N-(1-phenylethyl)benzamide] | 10 to 30 µM |
| CN(C)S(=O)(=O)c1cccc(-c2n[nH]c3c2CN(C#N)C3)c1 [Example 47, 3-(5-Cyano-1,4,5,6-tetrahydropyrrolo[3,4-c]pyrazol-3-yl)-N,N-dimethylbenzene-sulfonamide] | < 10 µM |
